{"source": "patent US10028930B2", "about": "“Compositions capable of enhancing thermogenesis and uses thereof” (Specialty Nutrition Group, Inc., priority 2013, dated 2018)", "origin": "cited, not measured here", "key": {"[1]": {"system": "uncoupling proteins (UCP-1, UCP-2, UCP-3)", "conditions": "rodents, brown and white adipose tissue"}, "[2]": {"conditions": "NAFLD subjects, compared to placebo"}}}
{"substance": "Fucoxanthin", "values": [{"measurement": "expression of uncoupling proteins (UCP-1, UCP-2, UCP-3)", "setting": "[1]", "result": "inducing the expression"}, {"measurement": "resting energy expenditure (REE)", "setting": "[2]", "result": "significantly increased"}]}
